1 molecule from paper PMC7773887 (Computational and Structural Biotechnology Journal, 2020) can be followed below.

In test [1] the target is AmpC BER (Escherichia coli, UniProt A7TUE6). Nature of the test: nitrocefin hydrolysis steady-state kinetics, Lineweaver-Burk. It counts as biochemical.
Test [2] has as its target CMY-10 (Klebsiella aerogenes, UniProt Q99QC1). Nature of the test: nitrocefin hydrolysis assay at […] inhibitor. It counts as biochemical. Conditions: read-out: % inhibition at 200 μM.

AmpC BER, sequence (A7TUE6 20-379): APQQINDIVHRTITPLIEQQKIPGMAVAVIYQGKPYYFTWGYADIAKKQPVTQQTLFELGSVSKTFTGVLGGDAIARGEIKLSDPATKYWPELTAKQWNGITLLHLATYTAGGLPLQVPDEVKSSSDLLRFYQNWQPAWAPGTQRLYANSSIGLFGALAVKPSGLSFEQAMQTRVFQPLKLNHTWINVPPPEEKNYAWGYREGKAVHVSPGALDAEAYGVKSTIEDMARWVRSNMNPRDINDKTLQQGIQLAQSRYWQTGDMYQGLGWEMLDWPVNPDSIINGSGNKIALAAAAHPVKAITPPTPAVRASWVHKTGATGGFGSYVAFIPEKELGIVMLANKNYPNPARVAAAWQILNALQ
CMY-10, sequence (Q99QC1 24-382): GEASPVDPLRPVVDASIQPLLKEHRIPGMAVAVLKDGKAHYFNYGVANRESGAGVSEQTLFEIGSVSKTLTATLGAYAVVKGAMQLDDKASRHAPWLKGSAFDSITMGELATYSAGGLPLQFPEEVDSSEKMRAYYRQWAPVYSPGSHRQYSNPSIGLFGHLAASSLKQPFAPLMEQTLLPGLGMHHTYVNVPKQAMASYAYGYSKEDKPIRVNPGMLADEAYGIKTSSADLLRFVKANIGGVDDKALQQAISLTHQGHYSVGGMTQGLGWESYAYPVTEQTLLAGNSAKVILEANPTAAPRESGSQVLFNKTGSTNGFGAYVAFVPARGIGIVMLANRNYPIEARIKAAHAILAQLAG

By Ki is commonly meant the dissociation constant of the complex between target and ligand, obtained from inhibition or displacement. The inhibition is the relative decrease from the control value, in per cent. With `C=C1CCC[C@@H]2[C@@](C)(CCC(CCCc3ccoc3)COS(=O)(=O)O)[C@H](C)CC[C@]12C` (some centres unmarked) [Hali 5, halisulfate 5], the Ki in test [1] was 5.87 µM. For the same molecule, in test [2], the inhibition at 200 µM is around 90%.
